In patent publication US20210395226A1, “SUBSTITUTED ARYL COMPOUND AND PREPARATION METHOD THEREFOR AND USE THEREOF” (SICHUAN KELUN-BIOTECH BIOPHARMACEUTICAL CO., LTD., priority 2018, published 2021):
Read-outs that look alike come from different tables or passages of the source.

What was measured:
[1] = molecular target: T1, Adenosine A2a receptor (human) membrane (Homo sapiens, UniProt P29274); test: Determination of competitive inhibition constant (Ki) for adenosine A2a receptor, [3H]-CGS-21680 radioligand; format: binding; conditions: for Ki: human A2a receptor membrane, 6.0 nM [3H]-CGS-21680, read-out: Ki(A2a); for Ki(A1)/Ki(A2a): selectivity ratio A1 over A2a
T1 construct: purchased PerkinElmer RBHA2AM400UA
T1 sequence (P29274 whole entry): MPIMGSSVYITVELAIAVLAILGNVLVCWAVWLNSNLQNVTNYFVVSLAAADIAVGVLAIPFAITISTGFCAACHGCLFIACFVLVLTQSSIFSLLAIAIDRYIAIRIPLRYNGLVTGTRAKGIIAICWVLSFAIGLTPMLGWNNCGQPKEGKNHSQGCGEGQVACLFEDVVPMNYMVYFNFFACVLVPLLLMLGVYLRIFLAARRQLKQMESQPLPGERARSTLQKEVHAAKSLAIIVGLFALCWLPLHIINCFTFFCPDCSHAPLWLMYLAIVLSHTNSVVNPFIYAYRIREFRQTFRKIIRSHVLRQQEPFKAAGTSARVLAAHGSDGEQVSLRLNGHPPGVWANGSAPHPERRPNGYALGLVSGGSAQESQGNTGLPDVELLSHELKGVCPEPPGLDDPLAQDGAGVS
Outline: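 Human A2a receptor membranes (5.0 μg/well) were incubated 2 h at room temperature with [3H]-CGS-21680 (working concentration 6.0 nM) in 50 mM Tris-HCl pH 7.4, 10 mM MgCl2, 1 mM EDTA. Bound label was collected on PEI-treated GF/C filters and scintillation counted. Inhibition was scaled between 0.5% DMSO and 1000 nM CGS-15943 controls, IC50 was fitted, and Ki = IC50/(1 + [ligand]/Kd).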

[2] = molecular target: T2, Adenosine A1 receptor (human) membrane (Homo sapiens, UniProt P30542); test: Determination of competitive inhibition constant (Ki) for adenosine A1 receptor, [3H]-DPCPX radioligand; format: binding; conditions: 1.0 nM [3H]-DPCPX
T2 construct: purchased PerkinElmer ES-010-M400UA
T2 sequence (P30542 1-326): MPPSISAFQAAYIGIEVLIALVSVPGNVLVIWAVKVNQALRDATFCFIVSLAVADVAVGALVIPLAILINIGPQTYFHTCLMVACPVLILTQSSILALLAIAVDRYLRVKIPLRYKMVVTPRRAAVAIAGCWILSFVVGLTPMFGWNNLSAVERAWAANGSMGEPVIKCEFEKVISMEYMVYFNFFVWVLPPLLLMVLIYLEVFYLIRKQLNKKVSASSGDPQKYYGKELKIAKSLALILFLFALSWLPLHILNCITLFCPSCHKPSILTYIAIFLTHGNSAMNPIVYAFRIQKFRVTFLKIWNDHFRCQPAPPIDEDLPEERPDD
Outline: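 Human A1 receptor membranes (2.5 μg/well) incubated with 1.0 nM [3H]-DPCPX and test compound for 1 h at room temperature in HEPES/MgCl2/CaCl2/NaCl buffer, pH 7.4; 1000 nM CGS-15943 defined low control. Bound radioactivity collected on PEI-treated GF/C filters and counted; IC50 converted to Ki via Cheng–Prusoff using ligand Kd.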

[3] = Pharmacokinetics (PK) and distribution in brain tissue in rats; format: in vivo, male SD rats; conditions: for bioavailability / Cmax / AUC(0-t): male, SD; for bioavailability: plasma, oral 5 mg/kg compared with intravenous 1 mg/kg; for bioavailability / Plasma AUClast/brain AUClast: rat; for Cmax / AUC(0-t): rat plasma; for AUClast (brain): rat brain tissue
Method: Test Example 3: Study on Pharmacokinetics (PK) and Distribution in Brain Tissue in Rats
The compounds of the present application were administered to male SD rats by intravenous (IV) and intragastric (PO) respectively to investigate the pharmacokinetic characteristics. The dosages of IV and PO were 1 mg/kg and 5 mg/kg, respectively. The solvent for IV was a mixture of 5% DMSO, 5% Solutol (polyethylene glycol 15-hydroxystearate) and 90% saline, and the solvent for PO was 0.5% MC (methyl cellulose sodium). Before IV administration (0 h) and at 0.083 h, 0.25 h, 0.5 h, 1 h, 2 h, 4 h, 6 h, 8 h and 24 h time points after administration, blood samples were collected; before PO administration (0 h) and at 0.25 h, 0.5 h, 1 h, 2 h, 4 h, 6 h, 8 h and 24 h time points after administration, blood samples were collected; the blood samples were anticoagulated with EDTA.K2, and centrifuged to obtain plasma samples. For Compound 11, brain tissue samples were taken and homogenized at 0.25 h, 0.5 h, 1 h, 4 h and 8 h; for Compounds 19 and 32, and brain tissue samples were taken and homogenized at 0.25 h, 0.5 h, 1 h and 8 h (three SD rats were selected for the experiment of distribution in brain tissue at each time point), and the resulting brain tissue homogenate samples were stored at −80° C. The plasma samples and brain tissue homogenate samples were subjected to precipitation of protein, and then LC-MS/MS analysis was performed.
Pharmacokinetic parameters were calculated by means of non-compartmental model by using WinNonlin 6.3 software.

[4] = PO, 5 mg/kg, read-out: AUClast (plasma)

Row | Ki [1] [nM] | Ki(A1)/Ki(A2a) [1] | Ki [2] [nM] | bioavailability [3] [%] | Cmax ([3]; IV, 1 mg/kg) [ng/mL] | AUC(0-t) ([3]; IV, 1 mg/kg, read-out: AUClast) [ng·h/mL] | AUC(0-t) [3, 4] [ng·h/mL] | AUClast (brain) ([3]; PO, 5 mg/kg) [ng·h/g] | Plasma AUClast/brain AUClast ([3]; PO, 5 mg/kg) | Structure (SMILES)
1 | 9.6 | 146.3 | 1400 | 86.8 | 1150 | 2630 | 11400 | 70.2 | 163/1 | Cc1cc(-c2cnc(NC(=O)N3CCOCC3)nc2-c2ccc(F)cc2)cc(Cl)n1 [Compound 19, N-(5-(2-chloro-6-methylpyridin-4-yl)-4-(4-fluorophenyl)pyrimidin-2-yl) morpholine-4-carboxamide]
2 | 3.4 | 59.9 | 204 | 65.3 | 1310 | 985 | 3220 | 11.4 | 282/1 | Cc1ncnc2ccc(-c3cnc(NC(=O)N4CCOCC4)nc3-c3ccc(F)cc3)cc12 [Compound 11, N-(4-(4-fluorophenyl)-5-(4-methylquinazolin-6-yl)pyrimidin-2-yl) morpholine-4-carboxamide]
